Reference: PMC3003779 (Chemistry & biology, 2010)

Assays:
SHR and WKY rats [1] = assay: hemodynamic analysis with pressure-volume microcatheter; format: in vivo, rat; conditions: 1 mg/kg i.v., 20 min
CB1 receptor = CB1 receptor (Rattus norvegicus, UniProt P20272); assay: radioligand displacement, [3H]CP,55940, rat forebrain membranes
SHR and WKY rats [2] = assay: plasma norepinephrine; format: in vivo, rat; conditions: 1 mg/kg i.v.
SHR and WKY rats [3] = assay: mean arterial pressure and heart rate in anesthetized rats; format: in vivo, rat; conditions: 1 mg/kg i.v.
[4] = system: brain anandamide and 2-AG levels; assay: brain endocannabinoid levels by LC/MS; conditions: SHR and WKY, bolus i.p. doses, 1 h
[5] = system: [3H]anandamide uptake by cultured CCF-STTG1 astrocytoma cells; assay: anandamide transport assay; conditions: concentrations up to 20 μmol/L
Mouse hepatocytes = assay: drug levels in hepatocyte suspensions by LC/MS/MS
SHR and WKY rats [6] = assay: non-fasting blood glucose in rats; conditions: 1 mg/kg i.p.

Sequence of CB1 receptor (P20272 whole entry): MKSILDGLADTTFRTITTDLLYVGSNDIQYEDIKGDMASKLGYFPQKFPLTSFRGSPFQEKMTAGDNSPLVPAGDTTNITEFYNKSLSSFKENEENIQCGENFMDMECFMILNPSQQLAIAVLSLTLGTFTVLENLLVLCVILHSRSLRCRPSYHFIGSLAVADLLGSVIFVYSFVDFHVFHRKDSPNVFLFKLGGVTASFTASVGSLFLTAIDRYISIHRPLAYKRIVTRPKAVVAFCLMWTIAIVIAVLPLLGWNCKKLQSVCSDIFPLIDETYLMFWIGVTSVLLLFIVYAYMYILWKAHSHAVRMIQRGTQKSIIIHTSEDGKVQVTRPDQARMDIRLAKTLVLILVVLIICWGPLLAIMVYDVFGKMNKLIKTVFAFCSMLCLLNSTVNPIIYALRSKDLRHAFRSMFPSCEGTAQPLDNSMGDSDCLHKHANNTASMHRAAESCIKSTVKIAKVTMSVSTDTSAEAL

With `O=S(=O)(F)CCCCCc1ccc(O)cc1` [AM3506, 5-(4-hydroxyphenyl)pentanesulfonyl fluoride] the “cardiac contractility (ESPVR)” value (SHR and WKY rats [1]; SHR) was “marked decrease”, the “cardiac output (CO)” value (SHR and WKY rats [1]; SHR) was “decreases” and the dP/dtmax (SHR and WKY rats [1]; SHR) was “decreases”. For the same molecule, the “left ventricular end-systolic pressure (LVESP)” value (SHR and WKY rats [1]; SHR) was “decreases”, the “LVESP, dP/dtmax, TPR and CO” value (SHR and WKY rats [1]; normotensive WKY) was “No changes” and the Ki (CB1 receptor) was 5.77 µM. The “plasma norepinephrine after treatment” value (SHR and WKY rats [2]; WKY, baseline 198±11, remained unaffected) was 167 ± 35 pg/mL, the “reduction of plasma norepinephrine” value (SHR and WKY rats [2]; anesthetized SHR, 30 min) was 82±5% and the “plasma norepinephrine after treatment” value (SHR and WKY rats [2]; anesthetized SHR, 30 min, […]) was 53 ± 12 pg/mL. For the same molecule, the “effect on HR” value (SHR and WKY rats [3]; SHR) was “marked bradycardia”, the “effect on MAP” value (SHR and WKY rats [3]; SHR) was “profound and sustained decrease” and the “effect on MAP and HR” value (SHR and WKY rats [3]; WKY) was “only slight changes”. The “brain 2-AG levels” value [4] was “remained unaffected”, the brain anandamide levels [4] was “parallel increases” and the “effect on anandamide transport” value [5] was “did not affect”. The “recovery of drug from cell-free medium” value (Mouse hepatocytes; 0 to 30 min, no hepatocytes) was “remained constant”, the “drug level in cell pellets, dense hepatocyte suspension” value (Mouse hepatocytes; 100 nM, 40 mg/mL) was “below threshold” and the “drug level in medium, dense hepatocyte suspension” value (Mouse hepatocytes; 100 nM, 40 mg/mL) was “rapidly depleted from the medium”. For the same molecule, the “free drug (parent ion) still present in cell-free supernatant” value (Mouse hepatocytes; dilute hepatocyte suspension 1 mg/mL, 100 nM, 10 min, % of drug added at 0 min) was 50–55%, the “non-fasting blood glucose after treatment” value (SHR and WKY rats [6]; SHR, from 97.8±5.6) was 96.8 ± 2.9 mg/dL and the “non-fasting blood glucose after treatment” value (SHR and WKY rats [6]; WKY, from 114.5±5.3) was 108.2 ± 4.5 mg/dL.
